Data as given in US20230226087A1, “PHOSPHOLIPIDS AND PHOSPHOLIPID METABOLITES FOR TREATING VIRAL AND BACTERIAL PNEUMONIA AND SEPSIS” (ANDREAS HETTICH GMBH & CO. KG, priority 2020, published 2023).
Read-outs that look alike come from different tables or passages of the source.

Assays:
plasma LysoPC level [1] = assay: Change of plasma LysoPC level after oral ingestion in a fasted healthy subject (HPTLC assay of LysoPC); details: 600 mg alpha-GPC
Procedure: (§1) LysoPC from plasma, serum or blood was extracted in one step by a newly developed method and subsequently assayed by using HPTLC (high performance thin layer chromatography).
(§2) The extraction of 50 μl of sample each was effected using salt-assisted extraction. For this purpose, a ceramic sphere (3.4 mm, ceramic) was charged in a 2 ml twist-top vial, and then 50 μl of distilled water, 50 μl of sample, 192 μl of concentrated ammonium acetate solution, and 300 μl of acetonitrile/1-pentanol (2.5:1 v/v) were added. After closing, the vial is intensively shaken centrifugally using dual centrifugation (ZentriMix 380 R, from the company Hettich, Tuttlingen, Germany) at 2000 rpm and 20° C. for 4 min. Subsequently, the vials are centrifuged at 16,000 rpm for 10 min. From the upper phase, 200 μl is removed, transferred to a crimp-top vial with a microinsert, crimped, and sent to HPTLC.
(§3) For the determination of the LysoPC concentrations using HPTLC, five LysoPC standards (16, 40, 80, 120 and 160 μM LysoPC in acetonitrile/1-pentanol (2.5:1 v/v.) and up to 12 sample extracts were applied to a 20×10 cm silica gel plate using the automated applying device ATS4 (CAMAG, Switzerland). The volume applied is 6 μl each.
(§4) After the application and after a dwell time of five minutes to ensure uniform evaporation of the solvent, the plate is placed into a preconditioned DC chamber filled with 35 ml of chloroform/methanol/water (65:35:4 v/v) and 200 μl of 25% ammonia solution for 20 min. Within this period, a travelling distance of about 9 cm is reached. […] After cooling to room temperature again, the optical density of the LysoPC bands (Rf about 0.1) is determined using the evaluation unit (TLC Visualizer 2, CAMAG, Switzerland), and the LysoPC concentrations were evaluated by comparing with the calibration substances using the HPTLC software “visionCATS” (Camag, Switzerland). If the LysoPC value is determined, not directly from plasma, but from whole blood, then the value needs to be corrected by the respective hematocrit value and by a factor of 1.3. […]

albumin = albumin (Homo sapiens, UniProt P02768); details: cited from earlier work
sepsis models = details: mice, 25 mg/kg LysoPC i.p., cited from earlier work
[2] = system: septic shock (Gram positive and Gram negative); details: rat, cited from earlier work
E. coli = details: mice, cited from earlier work
[3] = system: production of antigen-specific antibodies; details: mice, administered simultaneously with various antigens; cited from earlier work
[4] = squirrel monkeys; cited from earlier work
[5] = mice; cited from earlier work
[6] = Assaying the total amount of LysoPC in the body (distribution between plasma and deeper compartments); format: in vivo, human
Procedure: To the therapeutic approach for the treatment of pneumonias of different origins and of sepsis as described herein, the determination of the total amount of LysoPC in the body is essential. The latter could be determined by determining the LysoPC concentration in the plasma, which is in equilibrium with the deeper compartments. To this end, one subject was administered, on the one hand, a high amount of phospholipid from egg (Example 1 (Determination of Plasma LysoPC) and Example 2). The plasma volume was calculated, the increase of the LysoPC concentration was determined, and the plasma LysoPC level accompanying this concentration change was calculated. This LysoPC amount and its ratio to the amount taken up yields the distribution of the LysoPC equivalent taken up between the plasma and the deeper compartments, from which the total LysoPC amount in the body can be calculated. It was considered that 100% of the phospholipid is taken up as LysoPC.
In another experiment, a subject was administered a high amount (25 g) of pure triglyceride (Example 3). The plasma volume was calculated. The lowering of the LysoPC concentration because of the consumption of LysoPC for producing PC for the biosynthesis of chylomicrons was determined (One chylomicron contains about 5-10% PC as a ratio to the amount of triglyceride). The amount of plasma LysoPC involved in this concentration change was calculated. This amount of LysoPC and its ratio to the amount taken up yields the distribution of the LysoPC equivalent taken up between the plasma and the deeper compartments, from which the total LysoPC amount in the body can be calculated. It was considered that 100% of the plasma LysoPC was converted to PC.
From the results of Examples 2 and 3, the amount of LysoPC in deeper compartments could be estimated at about 95% of the total body LysoPCs, i.e., about 5% is present in the blood plasma.
On this basis, the amount of total body LysoPCs can be estimated to a minimum of 10 g. […]

plasma LysoPC level [7] = details: human, in vivo
Procedure: as §1, §2, §3, §4

Chain of albumin (P02768 25-609): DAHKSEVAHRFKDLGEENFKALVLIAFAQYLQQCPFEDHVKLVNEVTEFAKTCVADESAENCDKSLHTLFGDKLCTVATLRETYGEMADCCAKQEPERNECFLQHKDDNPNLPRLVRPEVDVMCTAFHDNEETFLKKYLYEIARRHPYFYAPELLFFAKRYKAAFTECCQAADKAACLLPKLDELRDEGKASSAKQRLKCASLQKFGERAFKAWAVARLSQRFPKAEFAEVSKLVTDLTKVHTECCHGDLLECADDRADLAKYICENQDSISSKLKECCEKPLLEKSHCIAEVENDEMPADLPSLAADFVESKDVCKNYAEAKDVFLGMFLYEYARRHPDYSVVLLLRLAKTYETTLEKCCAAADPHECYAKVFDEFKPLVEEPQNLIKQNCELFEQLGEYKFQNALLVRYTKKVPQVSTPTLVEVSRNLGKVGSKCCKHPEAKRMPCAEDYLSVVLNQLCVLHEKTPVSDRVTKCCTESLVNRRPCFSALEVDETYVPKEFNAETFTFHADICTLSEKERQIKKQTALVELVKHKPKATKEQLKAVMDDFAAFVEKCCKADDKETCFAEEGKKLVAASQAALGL

## alpha-glycerophosphocholine [alpha-GPC]
Plasma LysoPC level [1]; rise within 30 min after the first hour, then constant until end (2 hours)
  increase of plasma LysoPC level: about 20%
Plasma LysoPC level [1]; starting level about 190 μM
  change of plasma LysoPC level in the first hour: did not change

## lyso-phosphatidylcholine [LysoPC]
albumin
  number of binding sites of albumin for LysoPC: 3-4
albumin; plasma
  share of plasma LysoPCs bound by albumin: about 80%
Sepsis models
  bacterial clearance: improved
Sepsis models; from 0%
  survival, first sepsis model: 69%
  survival, second sepsis model: 40%
[2]; accompanying the protecting effects
  IL1-β levels: reduction of the IL1-β levels
[2]; higher doses of up to 100 mg/kg
  effect of higher doses: incapable or even harmful
[2]; up to 10 mg/kg, i.v.
  effect on damage to the organs and dysfunctions: reduce the damage to the organs and dysfunctions significantly
E. coli; E. coli sepsis, 20 mg/kg LysoPC s.c., from about 20%
  survival: 90%
E. coli; single injection
  duration of increased LysoPC level after a single injection: about 4 hours
[3]
  effect in the production of antigen-specific antibodies (adjuvant): identical to that of alum
[4]
  LysoPC half life: 1.3 h
[5]
  LysoPC half life: about 4 hours
[6]; for mean 300 μM and plasma volume about 3.5 liters (about 500 mg in plasma)
  amount of total body LysoPCs: about 10 g
[6]; from Examples 2 and 3
  proportion of total body LysoPC located in the blood plasma: 4-5%
[6]; healthy subjects, based on estimated total body half life of 2.5 hours
  daily conversion rate of LysoPC: about 50 g

## triglycerides
Plasma LysoPC level [7]
  share of the consumed LysoPC amount (1700 mg) taken from the plasma: 3.9%
